The values that follow come from ChEMBL document CHEMBL5120959, “Pyrrospirones K-Q, Decahydrofluorene-Class Alkaloids from the Marine-Derived Fungus Penicillium sp. SCSIO 41512” (J Nat Prod, 2022).

The structures appear in SMILES notation. Converted amounts (≈) assume the structure as drawn. Bounds are passed on as bounds.

Assay [1] has as its system Streptococcus agalactiae. Briefly: Antibacterial activity against Streptococcus agalactiae ATCC 13813 assessed as reduction in microbial growth after 12 hrs by microbroth dilution method. The format is functional.
In assay [2] the test system is Staphylococcus aureus. As to the kind of experiment: Antibacterial activity against methicillin-resistant Staphylococcus aureus assessed as reduction in microbial growth after 12 hrs by broth microdilution method. The format is functional.
Assay [3] concerns the target T1, Receptor-type tyrosine-protein phosphatase C (Homo sapiens, UniProt P08575).
T1 sequence (P08575 whole entry): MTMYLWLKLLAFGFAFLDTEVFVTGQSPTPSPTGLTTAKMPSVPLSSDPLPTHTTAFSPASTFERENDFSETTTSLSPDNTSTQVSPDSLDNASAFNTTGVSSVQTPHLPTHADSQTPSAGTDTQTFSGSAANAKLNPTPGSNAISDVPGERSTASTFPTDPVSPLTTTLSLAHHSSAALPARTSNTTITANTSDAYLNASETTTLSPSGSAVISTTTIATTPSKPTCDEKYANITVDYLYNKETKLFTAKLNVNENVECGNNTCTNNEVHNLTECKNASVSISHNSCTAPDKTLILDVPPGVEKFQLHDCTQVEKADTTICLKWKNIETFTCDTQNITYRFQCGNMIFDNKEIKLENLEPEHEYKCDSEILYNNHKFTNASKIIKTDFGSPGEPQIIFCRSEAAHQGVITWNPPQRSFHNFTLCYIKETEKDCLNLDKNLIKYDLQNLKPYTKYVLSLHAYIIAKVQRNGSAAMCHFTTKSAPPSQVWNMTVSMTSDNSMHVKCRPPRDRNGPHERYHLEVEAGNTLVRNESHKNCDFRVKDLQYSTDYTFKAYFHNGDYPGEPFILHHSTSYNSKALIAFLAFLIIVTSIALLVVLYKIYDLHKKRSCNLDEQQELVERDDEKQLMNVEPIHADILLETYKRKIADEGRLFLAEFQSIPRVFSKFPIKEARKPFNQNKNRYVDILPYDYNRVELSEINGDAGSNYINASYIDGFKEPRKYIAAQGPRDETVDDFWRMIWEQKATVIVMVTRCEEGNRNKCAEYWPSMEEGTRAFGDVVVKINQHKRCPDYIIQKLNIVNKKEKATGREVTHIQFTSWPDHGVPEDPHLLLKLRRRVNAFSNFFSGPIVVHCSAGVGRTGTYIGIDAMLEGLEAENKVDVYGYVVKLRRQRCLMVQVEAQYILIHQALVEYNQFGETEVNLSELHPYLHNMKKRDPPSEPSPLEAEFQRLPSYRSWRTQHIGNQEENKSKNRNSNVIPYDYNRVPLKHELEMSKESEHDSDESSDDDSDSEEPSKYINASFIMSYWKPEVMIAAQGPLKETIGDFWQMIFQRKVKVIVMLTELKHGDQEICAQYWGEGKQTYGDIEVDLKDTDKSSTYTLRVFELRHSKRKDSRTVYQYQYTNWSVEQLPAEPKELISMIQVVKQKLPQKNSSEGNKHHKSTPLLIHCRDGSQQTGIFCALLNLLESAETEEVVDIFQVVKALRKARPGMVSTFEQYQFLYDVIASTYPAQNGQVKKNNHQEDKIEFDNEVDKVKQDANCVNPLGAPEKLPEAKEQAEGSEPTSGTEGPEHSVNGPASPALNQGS
As to the kind of experiment: Inhibition of human CD45.

Assay [4] has as its target Receptor-type tyrosine-protein phosphatase F (Homo sapiens, UniProt P10586). Briefly: Inhibition of human LAR.
Assay [5] relates to Bacillus subtilis. As to the kind of experiment: Antibacterial activity against Bacillus subtilis BS01 assessed as reduction in microbial growth after 12 hrs by microbroth dilution method. The format is functional. On the technique in general: Broth dilution looks for growth in wells or tubes with falling amounts of substance.
The subject of assay [6] is Staphylococcus aureus. As to the kind of experiment: Antibacterial activity against Staphylococcus aureus ATCC 6538 assessed as reduction in microbial growth after 12 hrs by microbroth dilution method. In kind it is functional.
Assay [7] deals with Staphylococcus aureus. As to the kind of experiment: Antibacterial activity against methicillin-resistant Staphylococcus aureus assessed as reduction in microbial growth after 12 hrs by microbroth dilution method. In kind it is functional.
The target of assay [8] is T2, Tyrosine-protein phosphatase non-receptor type 2 (Homo sapiens, UniProt P17706).
T2 sequence (P17706 whole entry): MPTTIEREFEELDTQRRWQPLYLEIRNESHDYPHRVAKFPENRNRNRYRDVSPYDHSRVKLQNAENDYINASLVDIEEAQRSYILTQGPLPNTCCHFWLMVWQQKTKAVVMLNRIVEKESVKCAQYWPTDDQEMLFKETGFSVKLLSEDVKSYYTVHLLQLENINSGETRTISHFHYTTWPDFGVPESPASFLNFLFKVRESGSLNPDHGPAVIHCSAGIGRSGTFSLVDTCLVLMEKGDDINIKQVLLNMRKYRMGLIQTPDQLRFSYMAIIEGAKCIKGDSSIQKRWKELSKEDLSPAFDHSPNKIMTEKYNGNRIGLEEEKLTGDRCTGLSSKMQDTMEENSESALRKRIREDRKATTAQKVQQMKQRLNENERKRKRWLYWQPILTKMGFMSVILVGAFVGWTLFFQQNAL
Briefly: Inhibition of human TCPTP.

The target in assay [9] is T3, Tyrosine-protein phosphatase non-receptor type 1 (Homo sapiens, UniProt P18031).
T3 sequence (P18031 whole entry): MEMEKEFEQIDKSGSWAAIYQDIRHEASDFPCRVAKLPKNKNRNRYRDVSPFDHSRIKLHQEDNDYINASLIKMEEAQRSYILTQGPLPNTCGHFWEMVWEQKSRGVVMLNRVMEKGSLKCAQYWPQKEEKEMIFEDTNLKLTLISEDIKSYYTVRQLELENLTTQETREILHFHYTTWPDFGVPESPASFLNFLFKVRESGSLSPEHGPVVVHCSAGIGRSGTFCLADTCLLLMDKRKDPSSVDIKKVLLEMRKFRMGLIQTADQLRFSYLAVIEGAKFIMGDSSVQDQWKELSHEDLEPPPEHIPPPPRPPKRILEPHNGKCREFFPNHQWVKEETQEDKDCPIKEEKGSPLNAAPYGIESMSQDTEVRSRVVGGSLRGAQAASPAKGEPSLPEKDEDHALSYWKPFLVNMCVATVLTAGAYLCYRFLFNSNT
Briefly: Inhibition of human PTP1B.

Assay [10] has as its target Tyrosine-protein phosphatase non-receptor type 6 (Homo sapiens, UniProt P29350). As to the kind of experiment: Inhibition of human SHP1.
The test system of assay [11] is Escherichia coli. Briefly: Antibacterial activity against Escherichia coli assessed as reduction in microbial growth after 12 hrs by broth microdilution method. The format is functional.
Assay [12] deals with Escherichia coli. As to the kind of experiment: microbe, parasite or virus in culture. In kind it is functional. Particulars: ATCC 25922, time 12 hrs.
Description: Antibacterial activity against Escherichia coli ATCC 25922 assessed as reduction in microbial growth after 12 hrs by microbroth dilution method
Assay [13] has as its system Bacillus amyloliquefaciens. Briefly: Antibacterial activity against Bacillus amyloliquefaciens GDMCC 60233 assessed as reduction in microbial growth after 12 hrs by microbroth dilution method. The format is functional.
The test system of assay [14] is Mycobacterium tuberculosis. Briefly: Antitubercular activity against Mycobacterium tuberculosis H37Ra. In kind it is functional.

Receptor-type tyrosine-protein phosphatase F, sequence (P10586 whole entry): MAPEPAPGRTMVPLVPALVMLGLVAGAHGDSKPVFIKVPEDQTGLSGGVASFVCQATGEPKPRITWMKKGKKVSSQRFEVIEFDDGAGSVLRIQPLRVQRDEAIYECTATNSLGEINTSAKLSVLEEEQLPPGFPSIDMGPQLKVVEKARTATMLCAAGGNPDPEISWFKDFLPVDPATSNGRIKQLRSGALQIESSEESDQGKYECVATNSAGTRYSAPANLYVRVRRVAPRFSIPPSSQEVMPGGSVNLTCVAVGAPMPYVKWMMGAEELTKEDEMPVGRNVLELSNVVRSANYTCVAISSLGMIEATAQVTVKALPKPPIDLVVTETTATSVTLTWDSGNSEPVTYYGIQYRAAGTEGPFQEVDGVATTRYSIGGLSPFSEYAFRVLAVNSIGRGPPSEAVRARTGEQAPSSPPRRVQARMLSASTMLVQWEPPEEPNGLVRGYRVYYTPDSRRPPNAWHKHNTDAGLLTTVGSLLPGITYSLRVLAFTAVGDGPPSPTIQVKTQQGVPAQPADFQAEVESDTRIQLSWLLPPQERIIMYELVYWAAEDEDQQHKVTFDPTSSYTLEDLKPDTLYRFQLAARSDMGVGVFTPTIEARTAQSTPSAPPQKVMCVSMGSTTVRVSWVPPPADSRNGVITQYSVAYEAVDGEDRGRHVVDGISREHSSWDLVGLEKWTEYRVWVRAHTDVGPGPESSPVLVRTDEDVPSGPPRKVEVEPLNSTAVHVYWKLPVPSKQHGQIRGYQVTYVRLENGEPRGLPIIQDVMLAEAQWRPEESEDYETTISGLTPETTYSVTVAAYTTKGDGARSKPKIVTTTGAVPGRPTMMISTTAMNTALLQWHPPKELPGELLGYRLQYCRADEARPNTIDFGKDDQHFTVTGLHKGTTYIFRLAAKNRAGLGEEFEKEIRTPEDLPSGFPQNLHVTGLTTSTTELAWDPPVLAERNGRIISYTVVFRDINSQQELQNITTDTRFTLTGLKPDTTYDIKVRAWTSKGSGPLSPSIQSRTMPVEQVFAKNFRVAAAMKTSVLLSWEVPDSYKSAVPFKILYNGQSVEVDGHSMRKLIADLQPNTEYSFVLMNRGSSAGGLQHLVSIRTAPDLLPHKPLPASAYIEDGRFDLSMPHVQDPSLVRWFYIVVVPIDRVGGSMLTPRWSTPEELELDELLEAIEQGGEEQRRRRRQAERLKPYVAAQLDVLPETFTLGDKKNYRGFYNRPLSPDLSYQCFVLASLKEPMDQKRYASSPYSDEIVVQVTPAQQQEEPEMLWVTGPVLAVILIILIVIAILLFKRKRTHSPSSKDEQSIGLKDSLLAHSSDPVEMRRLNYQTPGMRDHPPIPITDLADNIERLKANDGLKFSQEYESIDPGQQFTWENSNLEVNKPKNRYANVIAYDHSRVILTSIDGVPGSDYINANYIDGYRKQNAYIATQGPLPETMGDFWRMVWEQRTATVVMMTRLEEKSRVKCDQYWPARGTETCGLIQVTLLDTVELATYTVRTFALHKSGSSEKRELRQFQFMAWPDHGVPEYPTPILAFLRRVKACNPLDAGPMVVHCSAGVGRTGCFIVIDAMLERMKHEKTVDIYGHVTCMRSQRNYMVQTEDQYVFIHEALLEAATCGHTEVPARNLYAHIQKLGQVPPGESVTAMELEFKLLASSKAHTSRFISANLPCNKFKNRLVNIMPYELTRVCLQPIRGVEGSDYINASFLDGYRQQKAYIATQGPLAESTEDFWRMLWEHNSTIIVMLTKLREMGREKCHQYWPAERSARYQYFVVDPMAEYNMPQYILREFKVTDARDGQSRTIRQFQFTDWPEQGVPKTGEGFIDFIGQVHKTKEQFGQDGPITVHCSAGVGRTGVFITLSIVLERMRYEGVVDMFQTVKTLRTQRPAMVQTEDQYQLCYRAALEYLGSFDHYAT
Tyrosine-protein phosphatase non-receptor type 6, sequence (P29350 whole entry): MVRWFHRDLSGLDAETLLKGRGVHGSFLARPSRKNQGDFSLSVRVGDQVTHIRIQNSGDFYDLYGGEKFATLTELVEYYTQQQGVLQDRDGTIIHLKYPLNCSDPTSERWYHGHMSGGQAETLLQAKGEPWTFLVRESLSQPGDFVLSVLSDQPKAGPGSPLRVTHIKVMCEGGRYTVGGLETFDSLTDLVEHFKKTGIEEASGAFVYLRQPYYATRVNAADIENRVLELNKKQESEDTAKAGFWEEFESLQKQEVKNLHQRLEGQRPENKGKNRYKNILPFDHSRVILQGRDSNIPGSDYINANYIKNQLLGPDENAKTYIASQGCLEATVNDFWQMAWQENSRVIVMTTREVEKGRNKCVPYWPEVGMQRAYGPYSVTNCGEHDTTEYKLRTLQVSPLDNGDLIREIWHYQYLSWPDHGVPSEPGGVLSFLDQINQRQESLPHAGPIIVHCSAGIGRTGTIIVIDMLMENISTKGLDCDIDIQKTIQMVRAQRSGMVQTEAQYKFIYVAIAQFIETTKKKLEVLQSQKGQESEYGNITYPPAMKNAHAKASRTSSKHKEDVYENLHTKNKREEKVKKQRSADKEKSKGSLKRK

For the compound `CO[C@@H]1C2Cc3ccc(cc3)O[C@H]3[C@@H]4[C@H]5C(=O)[C@@]1(C[C@H](O)[C@@]5(C)C=C(C)[C@H]4[C@]1(C)C[C@H](C)C[C@H](C)[C@@H]31)C(=O)N2`, the MIC in assay [1] amounted to 100 µg/mL; in assay [2], 2 µg/mL; in assay [5] it was 50 µg/mL; in [6], 100 µg/mL; in assay [7] it was 100 µg/mL; in [11], 2 µg/mL. Also, the MIC amounted to 50 µg/mL (≈ 93.7 µM) in assay [12] and 100 µg/mL in assay [13]. The IC50 (as a rule, the concentration that gives 50% inhibition) in assay [3] is over 200 µM; in assay [4], over 200 µM; in assay [8], over 200 µM; in assay [9], 66 µM; in assay [10], 80 µM.
As to `C=C[C@H]1C=C[C@@H]2[C@@H]3[C@@H](Oc4ccc(cc4)C[C@@]4(O)C[C@H](C(=O)N4)C(=O)[C@@H]13)[C@@H]1CC[C@@H](C)C[C@@]21C`, the MIC in [14] was 0.78 µg/mL (≈ 1.69 µM).
As for `CC1=C[C@@]2(C)[C@@H]3C(=O)[C@@]4(C[C@@H]2O)C(=O)NC(Cc2ccc(cc2)O[C@H]2[C@H]3[C@@H]1[C@]1(C)C[C@H](C)C[C@H](C)[C@@H]21)[C@H]4O`, the MIC in [1] is 10 µg/mL; in assay [2], 2 µg/mL; in assay [5], 10 µg/mL; in assay [6] it was 10 µg/mL; in assay [7], 10 µg/mL; in [11], 2 µg/mL. In addition, the MIC in assay [12] came out at 5 µg/mL (≈ 9.62 µM); in assay [13] it was 20 µg/mL. In addition, the concentration for half-maximal inhibition (IC50) is over 200 µM in assay [3]; over 200 µM in [4]; over 200 µM in [8]; 100 µM in [9]; 200 µM in assay [10].
On to `CO[C@@H]1C2Cc3ccc(cc3)O[C@H]3[C@@H]4[C@H]5C(=O)[C@@]1(C[C@@H](O)[C@@]5(C)C=C(C)[C@H]4[C@]1(C)C[C@H](C)C[C@H](C)[C@@H]31)C(=O)N2`, for which the MIC is 20 µg/mL in [1]; 2 µg/mL in [2]; 10 µg/mL in assay [5]; 20 µg/mL in [6]; 20 µg/mL in [7]; 2 µg/mL in assay [11]. In addition, the MIC in [12] is 5 µg/mL (≈ 9.37 µM); in assay [13] it was 20 µg/mL. Moreover, the IC50 in assay [3] is over 200 µM; in assay [4] it was over 200 µM; in assay [8], over 200 µM; in assay [9], 100 µM; in assay [10], 100 µM.
